From article PMC13223435, “Synthesis and Antiproliferative Activity against Melanoma Cells of New Heterocyclic Hybrids Based on Pyridine and Pyrimidine Scaffolds” (Current Medicinal Chemistry, 2025) come the findings set out here.

The test system of series [1] is A375 cells. Description: Live-cell imaging (time-lapse microscopy). In kind it is cell-based. The conditions noted are these: 5 µM, 48 h. The method, then: For live-cell imaging, A375 cells were seeded into 96-well plates at a density of 2×10^3 cells per well and allowed to grow for 24 h before imaging. Next, the cell culture medium was carefully removed, and new medium containing 16b (at 2 µM and 10 µM) and 29 (at 5 µM and 10 µM) was added and the cell culture plate was placed in the imaging chamber of Agilent BioTek Lionheart FX automated microscope (Agilent Technologies, Inc., Santa Clara, CA, USA) equipped with a Plan Fluorite 20x/0.75 objective (Olympus, Nishi-Shinjuki, Tokyo, Japan), and a FLIR Blackfly BFLY-U3-23S6M camera (Teledyne FLIR, Wilsonville, OR, USA). The temperature in the imaging chamber was set to 37°C and CO2 level to 5%. The bright-field images were acquired every 5 minutes for 48 hours.

The target of the next series is T1, tubulin (Sus scrofa, UniProt P02550+P02554).
T1 construct: purchased Cytoskeleton, Denver, CO, USA
T1 sequence (P02554 whole entry): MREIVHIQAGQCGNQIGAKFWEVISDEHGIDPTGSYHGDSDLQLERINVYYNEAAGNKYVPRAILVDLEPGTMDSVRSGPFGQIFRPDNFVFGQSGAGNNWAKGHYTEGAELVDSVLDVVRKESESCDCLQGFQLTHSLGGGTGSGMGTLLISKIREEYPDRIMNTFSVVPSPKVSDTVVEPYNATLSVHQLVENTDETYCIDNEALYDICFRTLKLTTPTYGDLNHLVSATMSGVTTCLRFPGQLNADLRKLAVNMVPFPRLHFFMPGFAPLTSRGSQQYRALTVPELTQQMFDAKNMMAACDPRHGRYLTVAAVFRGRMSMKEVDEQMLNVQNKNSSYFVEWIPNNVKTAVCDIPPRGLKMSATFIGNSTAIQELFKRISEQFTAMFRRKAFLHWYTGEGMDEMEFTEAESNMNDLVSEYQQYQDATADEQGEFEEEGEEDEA
T1 sequence (P02550 whole entry): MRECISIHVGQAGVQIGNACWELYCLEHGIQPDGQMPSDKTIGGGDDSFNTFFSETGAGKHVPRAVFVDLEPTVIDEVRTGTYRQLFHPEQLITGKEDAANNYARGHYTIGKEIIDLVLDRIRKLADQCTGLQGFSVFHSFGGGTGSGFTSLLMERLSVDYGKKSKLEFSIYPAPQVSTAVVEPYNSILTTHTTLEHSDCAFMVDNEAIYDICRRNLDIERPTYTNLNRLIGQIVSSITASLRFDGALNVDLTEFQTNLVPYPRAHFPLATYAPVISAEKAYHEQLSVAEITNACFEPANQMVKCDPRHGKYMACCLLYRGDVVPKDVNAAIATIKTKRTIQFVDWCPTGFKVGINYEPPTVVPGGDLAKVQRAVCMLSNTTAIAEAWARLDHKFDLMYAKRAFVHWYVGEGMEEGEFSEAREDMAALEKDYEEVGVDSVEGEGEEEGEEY
The series can be described thus: Cell free tubulin polymerization assay (fluorescence-based). In kind it is biochemical. How it is done:
The tubulin polymerization process was evaluated using a tubulin (>99% pure) and fluorescence-based tubulin polymerization kit (Cytoskeleton, Denver, CO, USA). The effects of compounds 16b and 29 (at final concentrations of 1, 10, 50, 100 µM) on tubulin polymerization were evaluated in cell-free conditions. Paclitaxel (PTX) and vinblastine (VBL) (3 µM) were used as references, and DMSO (0.2%) was used as the vehicle control. This assay tracks the process of tubulin polymerization through an increase in fluorescence resulting from the addition of a fluorescence reporter to microtubules as polymerization occurs. After incubating the tested compounds at 37°C for 1 minute, the icy tubulin reaction mixture (2 mg/mL tubulin, 1.0 mM GTP, 15% glycerol in buffer containing 80 mM PIPES, 2.0 mM MgCl2, 0.5 mM EGTA, pH 6.9, and 10 µM fluorescent reporter) was added to the samples, which were then mixed and monitored using a spectrophotometric microplate reader (Infinite 200 Pro, Tecan) at 1-minute intervals for 90 minutes at 37°C (excitation: 360 nm, emission: 450 nm). The software installed on the plate reader was used to compute the maximum slope (Vmax) of the growth phase, measured in RFU/min, as outlined in the manufacturer's instructions. Each polymerization curve's Vmax was then standardized against the control curve's Vmax. The IC50 values were determined using an online tool (AAT Bioquest, Inc., Quest Graph™ IC50 Calculator ((v.1). Retrieved from https://www.aatbio.com/tools/IC50-calculator-v1, accessed on: 2024, May 6).

Series [2] has as its system A375 cells. The series can be described thus: Annexin V-PE/7-AAD apoptosis assay (Muse). In kind it is cell-based. The conditions noted are these: 48 h, early and late apoptotic. How it is done: In this study, A375 cells were initially seeded into 24-well plates at a density of 1×10^4 cells per well. After 24 hours, the cell culture medium was carefully removed, and a new medium containing 16b and 29 at varying final concentrations (1, 5, and 10 µM) was added, followed by an additional 48-hour incubation. Cells in a medium containing 0.2% DMSO served as the control group. After the treatment period, cells were washed with phosphate-buffered saline (PBS), and both the cell medium and PBS wash were retained. The cells were then detached using trypsin and centrifuged. The resulting cell pellet was suspended in a fresh medium after discarding the supernatant. An equivalent volume of Muse Annexin V & Dead Cell Reagent (Luminex Corporation, Austin, TX, USA) was added and thoroughly mixed through repeated pipetting. The staining procedure was conducted for 20 minutes at room temperature in the absence of light. The Muse Cell Analyzer (Luminex Corporation, Austin, TX, USA) was utilized for analysis. This assay detects phosphatidylserine (PS) on apoptotic cell surfaces using annexin V-PE (phycoerythrin) binding. A 7-AAD (7-aminoactinomycin D) marker was used to assess cell membrane integrity. The dual staining approach enabled the identification of four distinct cell groups: viable (Annexin V-PE− and 7-AAD−), early apoptotic (Annexin V-PE+ and 7-AAD−), late apoptotic/dead (Annexin V-PE+ and 7-AAD+), and primarily nuclear debris (Annexin V-PE− and 7-AAD+). The findings were based on at least three separate experimental runs.

Another series has as its system melanoma A375 cells. The series can be described thus: WST-1 antiproliferative assay. In kind it is cell-based. The conditions noted are these: Homo sapiens, A-375. The source says: (§1) The A375 malignant melanoma cell line (ECACC 88113005, Salisbury, UK) was procured from the European Collection of Authenticated Cell Cultures (ECACC). The primary culture of human dermal fibroblasts (HDF) was derived from skin according to the protocol approved by the Ethical Committee of Pomeranian Medical University in Szczecin (KB-0012/02/18). The detailed protocol of fibroblast isolation, authentication, and cell culture conditions was previously described. Both cell lines were cultivated in a humidified incubator under conditions of 5% CO2 and a temperature of 37°C, using Dulbecco’s modified Eagle’s medium (DMEM) with 4500 mg/L glucose (Sigma-Aldrich Merck Group, St. Louis, MO, USA) enriched with 10% heat-inactivated fetal bovine serum (FBS, EURx, Gdańsk, Poland), 2 mM L-glutamine (Sigma-Aldrich Merck Group, St. Louis, MO, USA), and penicillin-streptomycin solution (Sigma-Aldrich Merck Group, St. Louis, MO, USA). Regular assessments for the presence of mycoplasma were conducted using the MycoAlert® Mycoplasma Detection Kit (Lonza, Rockland, ME, USA).
(§2) The evaluation of the antiproliferative activity of the compounds was performed using the Cell Proliferation Reagent WST-1 assay (Roche, Germany). This assay relies on the reduction of tetrazolium salt to formazan, with the final amount of formazan proportional to the number of viable cells. In our study, A375 cells (2×10^3) and HDF (3×10^3) were initially seeded into 96-well plates and cultured in a humidified atmosphere of 5% CO2 at 37°C. 24 hours later, the culture medium was replaced with a medium containing the tested compounds for a 48-hour incubation period at specified final concentrations. […] For control purposes, cells without the tested compounds, which contained only the vehicle (DMSO), were used. Additionally, a blank sample consisting of tested compounds in a medium (without cells) was included. After the 48-hour incubation period, the WST-1 reagent was introduced and allowed to incubate with the cells for 30 minutes. The absorbance was subsequently measured at 450 nm with background correction at 620 nm using a microplate reader (Infinite 200 Pro, Tecan, Männedorf, Switzerland). Cell viability was calculated according to the following formula: [(Atest–Ablank)/ (Acontrol − Ablank)] × 100%. These measurements were conducted in triplicate for at least three independent experiments.
In the screening step, 10 µM solutions of all 33 compounds were tested on A375 cells. […] Selected compounds (2c, 18e, 16b, 29) were tested at concentrations of 0.1, 1, 10, 50, and 100 µM. The IC50 values were determined using an online calculator (AAT Bioquest, Inc., Quest Graph™ IC50 Calculator (v.1). Retrieved from https://www.aatbio.com/tools/IC50-calculator-v1, accessed on: 2022, December 12).

Series [3] deals with human dermal fibroblasts (HDF). The series can be described thus: WST-1 assay on non-tumor cells (selectivity). In kind it is cell-based.
Text: as §1, §2
(§3) For that purpose, non-tumor HDF cells were used and the concentrations of tested compounds were increased to 200 µM (0.4% DMSO) and 500 µM (1% DMSO). Appropriate controls were prepared for higher concentrations of DMSO.
Background: Formazan colour is commonly taken as a measure of viable cells.

Series [4] can be described thus: WST-1 assay on non-tumor cells (selectivity). In kind it is cell-based, human. To be noted: human, primary human dermal fibroblasts (HDF); at 500 µM.
Text: as §1, §2, §3

On to `CN1C=C(c2ccccc2)[C@@H](c2ccccc2)[C@H](C(=O)c2ccccc2)C1=S` [Compound 29], for which, in the series with A375 cells [1], the “time-lapse observation of A375 cells” value is recorded as “more normal cells in the field of view than in the case of the same concentration of 16b”. The 50% inhibitory concentration (IC50) at tubulin (Vmax normalised to control, read-out: tubulin polymerization inhibition IC50) is over 100 µM; with melanoma A375 cells (48 hours of treatment), 4.85 ± 1.67 µM; in series [3] (Fibroblast, 48 hours of treatment, normal human dermal fibroblasts), over 500 µM. In addition, the “effect on tubulin polymerization” value at tubulin (all tested concentrations (1-100 µM)) is listed as “not interacting with tubulin”. In addition, the “percentage of annexin-positive cells” value in the series with A375 cells [2] (5 µM) is 8.28 ± 1.80%; with A375 cells [2] (10 µM) it was 21.38 ± 1.55%. Further, in the series on melanoma A375 cells (10 µM, 48 h of treatment, A375, read-out: Cell proliferation (% control)), the activity at 10 µM was 24.7 ± 4.73%. Moreover, in series [3] (IC50 normal cells (HDF)/IC50 cancer cell (A375)), the “Selectivity index (SI)” value is over 100. In series [4], this compound came in with a viability at 48 h, 500 µM of 85.9 ± 7.47%.

For orientation: IC50 means the concentration needed to halve the response being measured. Usually viability stands for a read-out of living cells in per cent, often relative to untreated cells.
